Values after ≈ are worked out from the molar mass of the structure shown.
Experiments:
[1] = system: Staphylococcus Epidermidis; assay: Antibacterial activity, MIC by double-microdilution method; assay type: cell-based; conditions: for Gram-positive MIC c: Table 2; for MIC: Table 2, read-out: Gram-positive MIC c
[2] = system: Escherichia coli 25922; assay: as above; assay type: cell-based; conditions: for Gram-negative MIC b / MIC: Table 2, Escherichia coli 25922; for MIC: read-out: Gram-negative MIC b
[3] = biological target: T1, E. coli DNA gyrase (Escherichia coli, UniProt P0AES4+P0AES6); assay: E. coli Gyrase-DNA supercoiling assay; assay type: biochemical; conditions: supercoiling of relaxed pHOT-1 plasmid in presence of ATP; 37° C., 60 minutes
T1 construct: purchased TopoGEN
T1 sequence (P0AES4 whole entry, one chain of several): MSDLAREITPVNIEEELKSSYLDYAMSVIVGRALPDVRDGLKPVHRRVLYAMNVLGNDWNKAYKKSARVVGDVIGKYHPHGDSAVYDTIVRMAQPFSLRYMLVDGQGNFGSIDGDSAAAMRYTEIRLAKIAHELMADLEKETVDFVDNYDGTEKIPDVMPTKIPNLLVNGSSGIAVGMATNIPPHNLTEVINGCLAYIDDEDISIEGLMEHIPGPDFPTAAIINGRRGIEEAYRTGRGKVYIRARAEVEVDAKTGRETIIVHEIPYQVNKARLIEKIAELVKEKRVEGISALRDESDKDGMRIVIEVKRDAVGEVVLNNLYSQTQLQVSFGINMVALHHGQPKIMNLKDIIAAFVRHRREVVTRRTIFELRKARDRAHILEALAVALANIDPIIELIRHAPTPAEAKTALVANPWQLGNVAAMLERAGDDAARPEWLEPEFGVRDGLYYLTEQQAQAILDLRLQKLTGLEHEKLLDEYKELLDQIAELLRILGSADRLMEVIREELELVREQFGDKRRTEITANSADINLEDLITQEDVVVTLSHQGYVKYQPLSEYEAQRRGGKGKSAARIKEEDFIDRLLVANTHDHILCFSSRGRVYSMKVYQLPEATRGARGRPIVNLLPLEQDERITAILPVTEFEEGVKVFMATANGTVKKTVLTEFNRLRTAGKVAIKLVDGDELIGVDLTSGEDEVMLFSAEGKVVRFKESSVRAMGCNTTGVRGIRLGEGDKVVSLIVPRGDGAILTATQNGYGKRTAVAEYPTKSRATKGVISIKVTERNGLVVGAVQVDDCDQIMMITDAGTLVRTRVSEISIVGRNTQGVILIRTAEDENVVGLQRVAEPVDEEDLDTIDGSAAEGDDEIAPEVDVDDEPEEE
Description: The DNA supercoiling reactions were based on the manufacturer protocol (TopoGEN). The amount of DNA gyrase used in each assay was optimized by testing various dilutions of the stock. The amount sufficient to supercoil 250 nanograms (ng) of the substrate in 1 hour at 37° C. was then used for testing the compounds (1.1 U as defined by manufacturer). Assays (30 μL) contained 250 nanograms of relaxed pHOT1 plasmid DNA in Tris-HCl buffer (35 mM), pH 7.5, containing KCl (24 mM), MgCl2 (4 mM), DTT (2 mM), Spermidine (1.8 mM), ATP (1 mM), 6.5% (w/v) glycerol and bovine serum albumin (0.1 mg/ml). Reactions were incubated at 37° C. for 60 minutes. Reaction mixtures were stopped by the addition of 30 μL of loading buffer (40% sucrose, 100 mM Tris·HCl (pH 7.5), 1 mM EDTA, 0.5 mg×mL^−1 bromophenol blue) and worked up using 30 μL of 24:1 chloroform/isoamyl alcohol mixture; the aqueous layer was then analyzed using electrophoresis.
Electrophoresis, gel staining, DNA visualization and DNA quantification were performed as described for the DNA cleavage assays.

[4] = system: supercoiled (+) pHOT-1 plasmid DNA; assay: DNA cleavage assay (gel electrophoresis); assay type: biochemical; conditions: for DNase activity (cleavage of supercoiled plasmid, form I to form II): HEPES buffer (50 mM, pH 7.4), 5 hours
Description: Removal of Ligands Prior to Electrophoresis was performed when more than 100 μM of Cu(II)-ligand or Co(III) ligand (at any concentration) complexes were employed that is, for DNA cleavage assays that were performed in the absence of any adjuvants. An Amberlyst® 15 (Sigma Aldrich) ion-exchange resin was prepared according to the reported literature [Hettich et al. J. Am. Chem. Soc. 1997, 119 (24), 5638-5647] and stored at −20° C. Before use, 0.5 gram of the exchanger was mixed with 250 μL of water. After stopping the DNA-cleavage reaction by addition of EDTA (54 mM, 15 minutes incubation at 37° C.), 10 μL of the exchanger suspension was added, vortexed, and incubated at 37° C. for 15 minutes before centrifugation and electrophoresis.
DNA cleavage activity of the tested Complexes towards supercoiled (+) pHOT-1 plasmid DNA (TopoGEN) was monitored by gel electrophoresis. In a typical experiment, plasmid DNA (200 ng, […]) in HEPES buffer (50 mM, pH 7.4) was mixed with different concentrations of a tested metal complex in the presence or absence of ascorbic acid (0.32 mM). All stock solutions of buffers and of the metal complexes were prepared using HPLC grade water (ChromAR®). Molecular biology reagent grade water (Sigma) was added up to a total reaction volume of 30 μL before incubation for a given time. For the ascorbic acid assays, the reaction was quenched immediately after incubation with EDTA (54 mM). For analysis, 10 μL of loading buffer (40% sucrose, 100 mM Tris-HCl (pH 7.5), 1 mM EDTA, 0.5 mg·mL^−1 bromophenol blue) was added to the incubated solution and loaded onto an agarose (SeaKem LE) gel [1% in TAE×1 buffer (40 mM Tris, 20 mM acetic acid, 1 mM EDTA)]. Electrophoresis was carried out at 60 V for 2 hours. Gels were stained with 1 μg·mL^−1 ethidium bromide for 30 minutes and de-stained in TAE×1 buffer. DNA bands were visualized with medium-range ultraviolet light using Bio-Rad Gel Doc XR+ imaging system. The quantity of different DNA forms (I or II) was estimated using ImageJ software.
Chem. 2015, 2015 (28), 4722-4730; Kashiba-Iwatsuki et al. FEBS Lett. 1996, 389 (2), 149-15].
The copper complex of compound 2 (2-Cu(II)) was used as the positive control in these assays.

[5] = system: Bacillus Subtilis; assay: Antibacterial activity, MIC by double-microdilution method; assay type: cell-based; conditions: for Gram-positive MIC d / MIC: Table 2; for MIC: read-out: Gram-positive MIC d
[6] = system: Escherichia coli R477-100; assay: as above; assay type: cell-based; conditions: Escherichia coli R477-100; for Gram-negative MIC a / MIC: Table 2, without DTT; for MIC: R477100, read-out: Gram-negative MIC a
[7] = biological target: T1, E. coli DNA gyrase; assay: E. coli Gyrase-DNA cleavage assay; assay type: biochemical; conditions: for linearization of supercoiled DNA with DNA gyrase, after Proteinase K / generation of linear DNA with DNA gyrase, without Proteinase K: absence of ATP; for linearization of supercoiled DNA with DNA gyrase, after Proteinase K: second incubation with SDS and Proteinase K; for generation of linear DNA with DNA gyrase, without Proteinase K / concentration of maximum linear DNA (bell-shaped profile): without Proteinase K treatment; for generation of linear DNA with DNA gyrase, without Proteinase K: buffer with DTT
Description: E. coli gyrase enzyme was purchased from TopoGEN and the DNA cleavage reactions were based on the protocol of Inspiralis. Assays (30 μL) contained supercoiled (+) pHOT1 plasmid (200 nanograms) and DNA gyrase (5 U as defined by manufacturer) in 35 mM Tris-HCl (pH 7.5), 24 mM KCl, 4 mM MgCl2, 2 mM DTT, 1.8 mM Spermidine, 6.5% (w/v) glycerol and 0.1 mg/mL bovine serum albumin. Reactions were incubated at 37° C. for 60 minutes. Enzyme-DNA cleavage complexes were trapped by adding 3 μL of 2% SDS. Following this, 1.5 μL of 10 mg/mL Proteinase K (Sigma-Aldrich) was added (where relevant) and the reaction mixtures were incubated at 37° C. for 30 minutes to digest the enzyme gyrase. Samples were mixed with 30 μL of loading buffer (40% sucrose, 100 mM Tris-HCl (pH 7.5), 1 mM EDTA, 0.5 mg-ml-1 bromophenol blue) and worked up using 30 μL of 24:1 chloroform/isoamyl alcohol mixture; the aqueous layer was then analyzed using electrophoresis. Electrophoresis, gel staining, DNA visualization and DNA quantification were performed as described for the DNA cleavage assays. DNA double stranded cleavage was monitored by the conversion of supercoiled plasmid to linear DNA and quantified in comparison to a control drug-free reaction.
To investigate the mechanism of inhibition, a DNA gyrase-induced DNA cleavage assay was performed in the absence of ATP. In this assay, the production of linear DNA from supercoiled DNA is measured as a function of compound concentration. […] Consequently, for the purposes of this assay, it is necessary to perform a second incubation of the reaction mixture with SDS and Proteinase K, which enables the digestion of the DNA gyrase enzyme and thereby ‘frees’ the linear DNA (Form III) so that it moves during electrophoresis.

[8] = system: Gram-negative and Gram-positive bacteria; assay: Comparative antibacterial activity, all tested bacteria; assay type: cell-based; conditions: for antibacterial activity (in words): MIC, Table 2 and 3
Description: Comparative antibacterial activities were determined by measuring the MIC values by using the double-microdilution method according to the National Committee for Clinical Laboratory Standards (NCCLS). The Luria-Bertani growth medium and polypropylene 96-well plates (Thermo) were used unless otherwise stated. All the experiments were performed in triplicate, and analogous results were obtained in three different experiments.
Compounds 1-6 and their Cu(II) and Co(III) complexes, as well as the pendant-bearing compounds 19-23 and 26 were tested for their comparative antibacterial activity by determining MIC values against two Gram-negative E. coli strains (AR477-100 and 25922) and two Gram-positive strains, Staphylococcus Epidermidis, and Bacillus Subtilis.

[9] = system: supercoiled (+) pHOT-1 plasmid DNA; assay: DNA cleavage assay (gel electrophoresis); assay type: biochemical; conditions: 50 mM TRIS buffer

Compound | Gram-positive MIC c [1] [µg/mL] | Gram-negative MIC b [2] [µg/mL] | IC50 [3] [nM] | DNase activity (cleavage of supercoiled plasmid, form I to form II) ([4]; absence of adjuvants) | Gram-positive MIC d ([5]; Bacillus Subtilis) [µg/mL] | Gram-negative MIC a [6] [µg/mL] | antibacterial activity (in words) [8] | also measured
O.O=C(O)c1cn(C2CC2)c2cc(N3CCN(CCCCCCCN4CCNCCNCCNCC4)CC3)c(F)cc2c1=O.[Cu+2] [2-Cu(II)] | 12 | 6 | 240 ± 30 | significant cleavage enhancement even in relation to the activity of 1-Cu(II) and 4-Cu(II) | 12 | 12 |  | concentration giving almost complete smearing of the DNA (multiply nicked DNA) ([4]; ascorbic acid (0.32 mM), HEPES pH 7.4, 2 hours): 20 µM; linearization of supercoiled DNA with DNA gyrase, after Proteinase K [7]: linearized the DNA in a similar manner to the metal-free ligands; generation of linear DNA with DNA gyrase, without Proteinase K [7]: able to generate a significant quantity of linear DNA; concentration of maximum linear DNA (bell-shaped profile) [7]: 25 µM
O.O=C(O)c1cn(C2CC2)c2cc(N3CCN(Cc4ccc(CN5CCNCCNCCNCC5)cc4)CC3)c(F)cc2c1=O.[Cu+2] [4-Cu(II)] | 3 | 12 | 140 ± 20 | very significant enhancement in the rates of DNA cleavage | 6 | 24 |  | improvement of MIC in the presence of DTT ([2]; 10 mM DTT vs without DTT, E. coli 25922): 4 fold; improvement of MIC in the presence of DTT ([5]; 10 mM DTT vs without DTT, Gram-positive B. Subtilis): 4 fold; Gram-negative MIC, DTT 10 mM [6]: 3.0 µg/mL; linearization of supercoiled DNA with DNA gyrase, after Proteinase K [7]: linearized the DNA in a similar manner to the metal-free ligands; generation of linear DNA with DNA gyrase, without Proteinase K [7]: able to generate a significant quantity of linear DNA; concentration of maximum linear DNA (bell-shaped profile) [7]: 25 µM
O.O=C(O)c1cn(C2CC2)c2cc(N3CCN(Cc4ccc(CCN5CCNCCNCCNCC5)cc4)CC3)c(F)cc2c1=O.[Co+3].[OH-] [5-Co(III)] | 3 | 1.5 |  |  | 3 | 3 | slightly higher activity | 
O.O=C(O)c1cn(C2CC2)c2cc(N3CCN(Cc4ccc(CCCN5CCNCCNCCNCC5)cc4)CC3)c(F)cc2c1=O.[Co+3].[OH-] [6-Co(III)] | 3 | 3 |  |  | 3 | 6 | slightly higher activity | 
C1CNCCNCCNCCN1.O.[Co+3].[OH-] [Co(III)-cyclen, reference compound] |  |  |  |  |  |  |  | DNase activity in TRIS buffer with ATP ([9]; 1.8 mM ATP): not inhibited by ATP; DNase activity in TRIS buffer with glutamate ([9]; 100 mM potassium glutamate): very strongly inhibited by glutamate; DNase activity at micromolar concentrations ([4]; FIG. 32: 0.2 μg DNA over 2 hours (Co(III)-cyclen, 4-Co(III)), 0.6 μg DNA over 10 hours (23-Co(III))): inactive; effect of Co(III) complexes on plasmid DNA ([4]; absence of adjuvants, HEPES pH 7.4, 0.5 hours, micromolar concentrations): no effect whatsoever
O=C(O)c1cn(C2CC2)c2cc(N3CCN(Cc4ccc(CCN5CCNCCNCCNCC5)cc4)CC3)c(F)cc2c1=O [Compound 5] |  |  | 150 ± 40 |  |  |  | slightly higher activity | MIC [1]: 3 µg/mL (≈ 4.84 µM); MIC [2]: 3 µg/mL (≈ 4.84 µM); MIC ([5]; Bacillus Subtilis): 3 µg/mL (≈ 4.84 µM); MIC [6]: 6 µg/mL (≈ 9.68 µM)
O=C(O)c1cn(C2CC2)c2cc(N3CCN(Cc4ccc(CCCN5CCNCCNCCNCC5)cc4)CC3)c(F)cc2c1=O [Compound 6] |  |  | 70 ± 20 |  |  |  | slightly higher activity | MIC [1]: 1.5 µg/mL (≈ 2.37 µM); MIC [2]: 1.5 µg/mL (≈ 2.37 µM); MIC ([5]; Bacillus Subtilis): 3 µg/mL (≈ 4.73 µM); MIC [6]: 3 µg/mL (≈ 4.73 µM)
N=C(N)NCCN1CCNCCNCCN(CCCCc2ccc(CN3CCN(c4cc5c(cc4F)c(=O)c(C(=O)O)cn5C4CC4)CC3)cc2)CC1 [Compound 22] | 6 | 3 |  | significant DNase activity | 1.5 | 3 | slightly higher activity | Gram-positive MIC, DTT 0 mM ([5]; Table 3, Bacillus Subtilis, DTT 0 mM): 1.5 µg/mL; Gram-positive MIC, DTT 2 mM ([5]; Table 3, Bacillus Subtilis, DTT 2 mM): 1.5 µg/mL; Gram-positive MIC, DTT 10 mM ([5]; Table 3, Bacillus Subtilis, DTT 10 mM): 1.5 µg/mL; better antibacterial activity compared to all the other pendant-bearing metal-free ligands ([8]; Table 2 MIC): 4-8 fold; Gram-negative MIC, DTT 10 mM [6]: 3 µg/mL; Gram-negative MIC, DTT 0 mM ([6]; Table 3, DTT 0 mM): 3 µg/mL; Gram-negative MIC, DTT 2 mM ([6]; Table 3, DTT 2 mM): 3 µg/mL

Reference: patent US20230357189A1, “MODIFIED FLUOROQUINOLONES AND USES THEREOF” (Technion Research & Development Foundation Limited, priority 2021, published 2023)
